Reference: patent US20260071234A1, “METHODS AND COMPOSITIONS FOR HEMATOPOIETIC STEM CELL ENHANCEMENT” (THE REGENTS OF THE UNIVERSITY OF CALIFORNIA, priority 2022, published 2026)

Experiments:
HLF+ HSC = details: day 10 cultures; applicant's analysis of published dataset; cited from earlier work
CB HSPCs = assay: FACS based endocytosis assay, internalized fluorescent dextran in CB HSPCs; assay type: cell-based, human; details: MYCT1 KD CB HSPCs cultured 5 days; chlorpromazine 10 μM, MbCD 1 mM
Protocol: (§1) HSPC or endothelial cells transduced with control, MYCT1 KD, or MYCT1 OE lentiviral vectors were incubated with fluorescent dextran (pHrodo Red Dextran, ThermoFisher Scientific P10361) 40 μg/ml for 30 minutes at 37° C. After incubation, cells were immediately placed on ice, washed with ice-cold DPBS with 5% FBS and resuspended into single cell suspension for FACS analysis. 7AAD was included to discriminate dead cells.

E4EC = assay: FACS based endocytosis assay, internalized fluorescent dextran in E4EC; assay type: cell-based, human; details: MYCT1 KD E4EC, 10 μM chlorpromazine
Protocol: as §1

Compound | MYCT1 expression in HLF+ HSC (HLF+ HSC) | dextran internalization after pre-treatment with endocytosis inhibitor (CB HSPCs) | internalized fluorescent dextran after pre-treatment with endocytosis inhibitor (E4EC)
CC(C)n1cnc2c(NCCc3ccc(O)cc3)nc(-c3csc4ccccc34)nc21 [SR1] | minimal MYCT1 expression | – | –
Cn1nnc(-c2ccc3c(c2)[nH]c2nc(Cc4ccccc4)nc(NC4CCC(N)CC4)c23)n1 (centres unmarked) [UM171] | minimal MYCT1 expression | – | –
CN(C)CCCN1c2ccccc2Sc2ccc(Cl)cc21 [chlorpromazine] | – | not sufficient to restore hyperactive endocytosis | dampened the increased endocytosis caused by MYCT1 loss
methyl-beta-cyclodextrin | – | not sufficient to restore hyperactive endocytosis | –
